Measurements as given in ChEMBL document CHEMBL1149535, “2-Arylimino-5,6-dihydro-4H-1,3-thiazines as a new class of cannabinoid receptor agonists. Part 2: orally bioavailable compounds” (Bioorg Med Chem Lett, 2007).

Tests used:
Cannabinoid receptor 1 [1] = target: Cannabinoid receptor 1 (Homo sapiens, UniProt P21554); experiment: Binding affinity to human CB1 receptor
Cannabinoid receptor 2 [2] = target: Cannabinoid receptor 2 (Homo sapiens, UniProt P34972); experiment: Binding affinity to human CB2 receptor
[3] = Oral bioavailability in rat at 1 mg/kg; type: ADME, organism-based; conditions: in vivo
[4] = Total clearance in rat at 0.5 mg/kg, iv and 1 mg/kg, po; type: ADME, organism-based; conditions: in vivo
Mus musculus [5] = experiment: Analgesic activity against formalin-induced acute pain in iv dosed mouse; type: functional
[6] = Oral bioavailability in rat at 30 mg/kg; type: ADME, organism-based; conditions: in vivo
[7] = Half life in rat at 2 mg/kg, iv and 30 mg/kg, po; type: ADME, organism-based; conditions: in vivo
[8] = Total clearance in rat at 2 mg/kg, iv and 30 mg/kg, po; type: ADME, organism-based; conditions: in vivo
Cannabinoid receptor 1 [9] = target: Cannabinoid receptor 1 (Mus musculus, UniProt P47746); experiment: Binding affinity to mouse CB1 receptor
Cannabinoid receptor 2 [10] = target: Cannabinoid receptor 2 (Mus musculus, UniProt P47936); experiment: Binding affinity to mouse CB2 receptor
[11] = AUC in rat at 30 mg/kg, po; type: ADME, organism-based; design: dose 30 mg/kg, route oral; conditions: plasma
Mus musculus [12] = experiment: Analgesic activity against formalin-induced inflammatory pain in iv dosed mouse; type: functional
Mus musculus [13] = experiment: Analgesic activity against formalin-induced acute pain in po dosed mouse; type: functional
Mus musculus [14] = experiment: Analgesic activity against formalin-induced inflammatory pain in po dosed mouse; type: functional

Cannabinoid receptor 1 (Mus musculus, UniProt P47746), sequence (P47746 whole entry): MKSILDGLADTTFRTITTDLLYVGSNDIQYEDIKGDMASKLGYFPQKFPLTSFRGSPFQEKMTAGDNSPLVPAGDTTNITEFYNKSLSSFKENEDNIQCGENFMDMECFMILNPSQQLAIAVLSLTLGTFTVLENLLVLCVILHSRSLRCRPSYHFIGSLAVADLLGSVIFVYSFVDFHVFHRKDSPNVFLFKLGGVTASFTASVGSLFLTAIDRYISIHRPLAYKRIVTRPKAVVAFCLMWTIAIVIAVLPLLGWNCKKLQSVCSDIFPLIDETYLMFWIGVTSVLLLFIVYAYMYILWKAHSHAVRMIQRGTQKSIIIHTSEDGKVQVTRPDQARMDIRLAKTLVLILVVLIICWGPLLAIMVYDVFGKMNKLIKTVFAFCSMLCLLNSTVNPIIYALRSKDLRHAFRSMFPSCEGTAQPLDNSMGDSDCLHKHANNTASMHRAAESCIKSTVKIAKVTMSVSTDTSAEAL
Cannabinoid receptor 2 (Mus musculus, UniProt P47936), sequence (P47936 whole entry): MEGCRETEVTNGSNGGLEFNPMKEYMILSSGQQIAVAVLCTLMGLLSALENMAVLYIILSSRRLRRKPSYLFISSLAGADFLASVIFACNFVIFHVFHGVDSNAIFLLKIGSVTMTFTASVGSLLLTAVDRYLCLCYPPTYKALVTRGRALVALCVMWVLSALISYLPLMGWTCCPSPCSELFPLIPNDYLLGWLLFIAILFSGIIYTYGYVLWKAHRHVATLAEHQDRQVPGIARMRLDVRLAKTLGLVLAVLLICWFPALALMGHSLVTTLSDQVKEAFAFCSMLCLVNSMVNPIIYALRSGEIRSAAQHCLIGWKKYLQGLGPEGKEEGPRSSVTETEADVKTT
Cannabinoid receptor 2 (Homo sapiens, UniProt P34972), sequence (P34972 whole entry): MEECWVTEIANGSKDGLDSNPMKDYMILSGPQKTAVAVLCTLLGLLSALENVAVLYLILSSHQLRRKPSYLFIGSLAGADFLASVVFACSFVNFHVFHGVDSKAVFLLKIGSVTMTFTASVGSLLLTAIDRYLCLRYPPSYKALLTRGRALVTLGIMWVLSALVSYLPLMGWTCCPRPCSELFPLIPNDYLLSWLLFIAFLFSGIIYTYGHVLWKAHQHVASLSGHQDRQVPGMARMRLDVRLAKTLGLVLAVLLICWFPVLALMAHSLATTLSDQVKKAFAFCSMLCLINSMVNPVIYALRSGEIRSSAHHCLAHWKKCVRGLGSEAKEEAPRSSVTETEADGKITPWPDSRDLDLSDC
Cannabinoid receptor 1 (Homo sapiens, UniProt P21554), sequence (P21554 whole entry): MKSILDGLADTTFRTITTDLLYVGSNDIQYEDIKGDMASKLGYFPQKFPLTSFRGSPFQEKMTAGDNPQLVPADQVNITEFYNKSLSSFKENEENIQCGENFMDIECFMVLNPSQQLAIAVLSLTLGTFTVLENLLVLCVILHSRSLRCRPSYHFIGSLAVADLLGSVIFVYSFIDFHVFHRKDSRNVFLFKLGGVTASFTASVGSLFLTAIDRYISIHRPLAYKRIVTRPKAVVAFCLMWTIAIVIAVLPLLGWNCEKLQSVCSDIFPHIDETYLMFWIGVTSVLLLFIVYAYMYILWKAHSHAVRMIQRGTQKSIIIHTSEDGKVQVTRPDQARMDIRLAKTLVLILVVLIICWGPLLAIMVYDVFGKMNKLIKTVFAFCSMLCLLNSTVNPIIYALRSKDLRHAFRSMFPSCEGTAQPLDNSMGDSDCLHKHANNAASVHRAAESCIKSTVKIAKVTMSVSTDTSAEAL

`COc1cccc(/N=C2\SCC3(CCCCC3)CN2C(=S)SC)c1` showed a Ki (Cannabinoid receptor 1 [1]) of 108 nM, a Ki (Cannabinoid receptor 2 [2]) of 1 nM and a bioavailability [3] of 13%. For the same compound, the clearance [4] was 45.1 mL/min/kg.
`CSC(=S)N1CC2(CCCCC2)CS/C1=N\c1cccc2nsnc12` gave a Ki (Cannabinoid receptor 1 [1]) of 44 nM, a Ki (Cannabinoid receptor 2 [2]) of 1.3 nM and a clearance [4] of 60.4 mL/min/kg.
With `CSC(=S)N1CC2(CC2)CS/C1=N\c1ccccc1C(C)C` the Ki (Cannabinoid receptor 2 [2]) was 65 nM, the bioavailability [3] was 14% and the clearance [4] was 85.1 mL/min/kg.
In the case of `CSC(=S)N1CC2(CCCCC2)CS/C1=N\c1cccc(C(C)C)c1`, the Ki (Cannabinoid receptor 1 [1]) is reported as 100 nM and the Ki (Cannabinoid receptor 2 [2]) is reported as 2.5 nM.
`CSC(=S)N1CC2(CCCCC2)CS/C1=N\c1ccccc1C(C)C` gave an ED50 (Mus musculus [5]) of 1.2 mg/kg, a Ki (Cannabinoid receptor 1 [1]) of 122 nM and a Ki (Cannabinoid receptor 2 [2]) of 0.8 nM. The bioavailability [6] was 24%, the half-life [7] was 2.5 h and the clearance [8] was 38.2 mL/min/kg. It also gave a Ki (Cannabinoid receptor 1 [9]) of 80 nM, a bioavailability [3] of 32% and a Ki (Cannabinoid receptor 2 [10]) of 1.2 nM. For the same compound, the AUC [11] was 3200 ng·h/mL, the clearance [4] was 18.6 mL/min/kg and the ED50 (Mus musculus [12]) was 1.1 mg/kg. The ED50 (Mus musculus [13]) was 17.5 mg/kg and the ED50 (Mus musculus [14]) was 17.5 mg/kg.
`CSC(=S)N1CC2(CCCCC2)CS/C1=N\c1cccc2ncccc12` showed a Ki (Cannabinoid receptor 1 [1]) of 763 nM, a Ki (Cannabinoid receptor 2 [2]) of 11 nM and a bioavailability [3] of 42%. It also gave a clearance [4] of 121 mL/min/kg.
For `CSC(=S)N1CC2(CCCCC2)CS/C1=N\c1ccc(C(F)(F)F)cc1`, the Ki (Cannabinoid receptor 1 [1]) was 1730 nM and the Ki (Cannabinoid receptor 2 [2]) was 18 nM.
Work on `CCC1(CC)CS/C(=N\c2ccccc2C(C)C)N(C(=S)SC)C1` yielded a Ki (Cannabinoid receptor 1 [1]) of over 5000 nM, a Ki (Cannabinoid receptor 2 [2]) of 9 nM and a bioavailability [3] of 19%. For the same compound, the clearance [4] was 48.3 mL/min/kg.
`COc1ccccc1/N=C1\SCC2(CCCCC2)CN1C(=S)SC` gave a Ki (Cannabinoid receptor 1 [1]) of 13 nM, a Ki (Cannabinoid receptor 2 [2]) of 1.1 nM and a bioavailability [3] of 0.4%. The clearance [4] was 75.9 mL/min/kg.
In the case of `CCOc1ccccc1/N=C1\SCC2(CCCCC2)CN1C(=S)SC`, the Ki (Cannabinoid receptor 1 [1]) is reported as 358 nM and the Ki (Cannabinoid receptor 2 [2]) is reported as 6.3 nM.
`CSC(=S)N1CC2(CCCCC2)CS/C1=N\c1ccc2c(c1)CCCC2` showed a Ki (Cannabinoid receptor 1 [1]) of 396 nM and a Ki (Cannabinoid receptor 2 [2]) of 24 nM.
`COc1ccc(/N=C2\SCC3(CCCCC3)CN2C(=S)SC)cc1` gave a Ki (Cannabinoid receptor 1 [1]) of 671 nM and a Ki (Cannabinoid receptor 2 [2]) of 3.8 nM.
For `CN1CC[C@]23c4c5ccc(O)c4O[C@H]2[C@@H](O)C=C[C@H]3[C@H]1C5` [MORPHINE], the ED50 (Mus musculus [5]) was 1.1 mg/kg, the ED50 (Mus musculus [12]) was 1.1 mg/kg and the ED50 (Mus musculus [13]) was 27.3 mg/kg. For the same compound, the ED50 (Mus musculus [14]) was 9.8 mg/kg.
`CSC(=S)N1CC2(CCCCC2)CS/C1=N\c1ccc(C(C)C)cc1` gave a Ki (Cannabinoid receptor 1 [1]) of 1260 nM and a Ki (Cannabinoid receptor 2 [2]) of 23 nM.
`CSC(=S)N1CC2(CCCCC2)CS/C1=N\c1ccc(OC(F)(F)F)cc1` showed an ED50 (Mus musculus [5]) of over 20 mg/kg, a Ki (Cannabinoid receptor 1 [1]) of 1500 nM and a Ki (Cannabinoid receptor 2 [2]) of 6 nM. For the same compound, the bioavailability [6] was 20%, the half-life [7] was 2.4 h and the clearance [8] was 25.9 mL/min/kg. The Ki (Cannabinoid receptor 1 [9]) was 1210 nM, the bioavailability [3] was 24% and the Ki (Cannabinoid receptor 2 [10]) was 7 nM. It also gave an AUC [11] of 3900 ng·h/mL, a clearance [4] of 7.4 mL/min/kg and an ED50 (Mus musculus [12]) of over 20 mg/kg. For the same compound, the ED50 (Mus musculus [13]) was over 100 mg/kg and the ED50 (Mus musculus [14]) was over 100 mg/kg.
With `CSC(=S)N1CC2(CCCCC2)CS/C1=N\c1cccc2c1CCCC2` the ED50 (Mus musculus [5]) was 0.3 mg/kg, the Ki (Cannabinoid receptor 1 [1]) was 15 nM and the Ki (Cannabinoid receptor 2 [2]) was 0.2 nM. For the same compound, the bioavailability [6] was 7%, the half-life [7] was 4.1 h and the clearance [8] was 23.3 mL/min/kg. The Ki (Cannabinoid receptor 1 [9]) was 6 nM, the bioavailability [3] was 44% and the Ki (Cannabinoid receptor 2 [10]) was 0.7 nM. For the same compound, the AUC [11] was 1500 ng·h/mL, the clearance [4] was 19.1 mL/min/kg and the ED50 (Mus musculus [12]) was 0.2 mg/kg. The ED50 (Mus musculus [13]) was 2.5 mg/kg and the ED50 (Mus musculus [14]) was 4 mg/kg.
`CSC(=S)N1CC2(CCCCC2)CS/C1=N\c1cccc2nonc12` gave a Ki (Cannabinoid receptor 1 [1]) of 246 nM and a Ki (Cannabinoid receptor 2 [2]) of 0.9 nM.
With `CSC(=S)N1CC2(CCCCC2)CS/C1=N\c1cccc(C)c1C` the Ki (Cannabinoid receptor 1 [1]) was 114 nM and the Ki (Cannabinoid receptor 2 [2]) was 1 nM.
`CCc1ccc(/N=C2\SCC3(CCCCC3)CN2C(=S)SC)cc1` gave a Ki (Cannabinoid receptor 1 [1]) of 95 nM and a Ki (Cannabinoid receptor 2 [2]) of 1.2 nM.
`CCCc1ccc(/N=C2\SCC3(CCCCC3)CN2C(=S)SC)cc1` showed a Ki (Cannabinoid receptor 1 [1]) of 514 nM and a Ki (Cannabinoid receptor 2 [2]) of 7 nM.
With `CSC(=S)N1CC2(CCCCC2)CS/C1=N\c1ccccc1C(F)(F)F` the Ki (Cannabinoid receptor 1 [1]) was 418 nM and the Ki (Cannabinoid receptor 2 [2]) was 1.1 nM.
Compound `CSC(=S)N1CC2(CCCCC2)CS/C1=N\c1cccc2ccccc12` has an ED50 (Mus musculus [5]) of 0.4 mg/kg, a Ki (Cannabinoid receptor 1 [1]) of 30 nM and a Ki (Cannabinoid receptor 2 [2]) of 6 nM. For the same compound, the bioavailability [6] was 36%, the half-life [7] was 1.5 h and the clearance [8] was 30.1 mL/min/kg. The Ki (Cannabinoid receptor 1 [9]) was 6.8 nM, the bioavailability [3] was 53% and the Ki (Cannabinoid receptor 2 [10]) was 4 nM. For the same compound, the AUC [11] was 6100 ng·h/mL, the clearance [4] was 17.7 mL/min/kg and the ED50 (Mus musculus [12]) was 0.4 mg/kg. For the same compound, the ED50 (Mus musculus [13]) was 1.5 mg/kg and the ED50 (Mus musculus [14]) was 1 mg/kg.
With `CSC(=S)N1CC2(CCCCC2)CS/C1=N\c1ccc(C#N)cc1` the Ki (Cannabinoid receptor 1 [1]) was 173 nM and the Ki (Cannabinoid receptor 2 [2]) was 2.3 nM.
Compound `CSC(=S)N1CC2(CCCCC2)CS/C1=N\c1cccc2c1CCC2` has a Ki (Cannabinoid receptor 1 [1]) of 243 nM and a Ki (Cannabinoid receptor 2 [2]) of 5 nM.
In the case of `CSC(=S)N1CC(C)(C)CS/C1=N\c1ccccc1C(C)C`, the Ki (Cannabinoid receptor 1 [1]) is reported as over 5000 nM, the bioavailability [3] is reported as 10% and the clearance [4] is reported as 63.4 mL/min/kg.
With `CCCCCc1cc(O)c2c(c1)OC(C)(C)[C@@H]1CCC(C)=C[C@@H]21` [DRONABINOL] the ED50 (Mus musculus [5]) was 0.4 mg/kg and the ED50 (Mus musculus [12]) was 0.3 mg/kg.
`CSC(=S)N1CC2(CCCC2)CS/C1=N\c1ccccc1C(C)C` gave a Ki (Cannabinoid receptor 1 [1]) of 541 nM, a Ki (Cannabinoid receptor 2 [2]) of 1 nM and a bioavailability [3] of 8.9%. The clearance [4] was 54.2 mL/min/kg.
Compound `CSC(=S)N1CC2(CCCCC2)CS/C1=N\c1cccc2c1CCCN2C` has a Ki (Cannabinoid receptor 1 [1]) of 85 nM and a Ki (Cannabinoid receptor 2 [2]) of 1.1 nM.
For `CSC(=S)N1CC2(CCCCC2)CS/C1=N\c1ccccc1OC(F)(F)F`, the Ki (Cannabinoid receptor 1 [1]) was 711 nM and the Ki (Cannabinoid receptor 2 [2]) was 12 nM.
